Laboratory results taken from PubChem BioAssay AID248 (DTP/NCI, 2004).
Toxic doses and inconclusive results are not listed. Rule as the data show it: active = T/C of 150% or more; inactive = T/C below 125%.

Tested on: L1210 leukemia ip in BDF1 mice, survival T/C
Test: NCI In Vivo Anticancer Drug Screen. Data for tumor model L1210 Leukemia (intraperitoneal) in B6D2F1 (BDF1) mice
Settings: endpoint: mean survival time, higher = longer survival
How it was run: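 Tumor cells were implanted, animals were treated, and survival was followed. The result divides the treated measurement by the vehicle-control measurement.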

[1] = dose: 100.0 mg/kg/injection, schedule: Q04DX003 (ip), vehicle: saline with Tween-80
[2] = dose: 200.0 mg/kg/injection, schedule: Q04DX003 (ip), vehicle: saline with Tween-80
[3] = dose: 400.0 mg/kg/injection, schedule: Q04DX003 (ip), vehicle: saline with Tween-80
[4] = dose: 100.0 mg/kg/injection, schedule: Q01DX009 (ip), vehicle: Klucel (hydroxypropylcellulose) (HPC)
[5] = dose: 100.0 mg/kg/injection, schedule: Q04DX002 (ip), vehicle: saline
[6] = dose: 200.0 mg/kg/injection, schedule: Q01DX009 (ip), vehicle: Klucel (hydroxypropylcellulose) (HPC)
[7] = dose: 200.0 mg/kg/injection, schedule: Q04DX002 (ip), vehicle: saline
[8] = dose: 400.0 mg/kg/injection, schedule: Q04DX002 (ip), vehicle: saline
[9] = dose: 100.0 mg/kg/injection, schedule: Q04DX003 (ip), vehicle: saline
[10] = dose: 200.0 mg/kg/injection, schedule: Q04DX003 (ip), vehicle: saline
[11] = dose: 400.0 mg/kg/injection, schedule: Q04DX003 (ip), vehicle: saline
[12] = dose: 100.0 mg/kg/injection, schedule: Q04DX003 (ip), vehicle: Klucel (hydroxypropylcellulose) (HPC)
[13] = dose: 200.0 mg/kg/injection, schedule: Q04DX003 (ip), vehicle: Klucel (hydroxypropylcellulose) (HPC)
[14] = dose: 400.0 mg/kg/injection, schedule: Q01DX009 (ip), vehicle: Klucel (hydroxypropylcellulose) (HPC)
[15] = dose: 400.0 mg/kg/injection, schedule: Q04DX003 (ip), vehicle: Klucel (hydroxypropylcellulose) (HPC)
[16] = dose: 100.0 mg/kg/injection, schedule: Q01DX009 (ip), vehicle: saline
[17] = dose: 200.0 mg/kg/injection, schedule: Q01DX009 (ip), vehicle: saline
[18] = dose: 400.0 mg/kg/injection, schedule: Q01DX009 (ip), vehicle: saline
[19] = dose: 75.0 mg/kg/injection, schedule: Q01DX001 (ip), vehicle: other
[20] = dose: 150.0 mg/kg/injection, schedule: Q01DX001 (ip), vehicle: other

Measured: T/C

O=C(O)C1(O)c2ccccc2-c2ccc(Cl)cc21 (stereo not drawn)
inactive: dose: 50.0 mg/kg/injection, schedule: Q01DX001 (ip), vehicle: carboxymethylcellulose (CMC) 103 % of control | dose: 100.0 mg/kg/injection, schedule: Q01DX001 (ip), vehicle: carboxymethylcellulose (CMC) 105 % of control | dose: 200.0 mg/kg/injection, schedule: Q01DX001 (ip), vehicle: carboxymethylcellulose (CMC) 114 % of control | dose: 400.0 mg/kg/injection, schedule: Q01DX001 (ip), vehicle: carboxymethylcellulose (CMC) 103 % of control

Cc1nc(Cl)c(C#N)c(C(F)(F)F)c1N
inactive: dose: 100.0 mg/kg/injection, schedule: Q01DX Z (ip), vehicle: carboxymethylcellulose (CMC) 95 % of control

CCOC(=O)C(Cc1ccc(OCc2ccccc2)c(OCc2ccccc2)c1)(NC(C)=O)C(=O)OCC
inactive: dose: 100.0 mg/kg/injection, schedule: Q04DX003 (ip), vehicle: other 102 % of control | dose: 200.0 mg/kg/injection, schedule: Q04DX003 (ip), vehicle: other 100 % of control | dose: 400.0 mg/kg/injection, schedule: Q04DX003 (ip), vehicle: other 98 % of control

Nc1nc(N)c2cc(NCc3ccc(F)cc3)ccc2n1
inactive: dose: 3.13 mg/kg/injection, schedule: Q01DX009 (ip), vehicle: saline with Tween-80 90 % of control | dose: 6.25 mg/kg/injection, schedule: Q01DX009 (ip), vehicle: saline with Tween-80 92 % of control | dose: 6.25 mg/kg/injection, schedule: Q04DX003 (ip), vehicle: saline with Tween-80 100 % of control | dose: 12.5 mg/kg/injection, schedule: Q01DX009 (ip), vehicle: saline with Tween-80 97 % of control

CC(=O)Oc1ccc(N)cc1OC(C)=O
inactive: dose: 150.0 mg/kg/injection, schedule: Q01DX001 (ip), vehicle: steriod suspending solution 95 % of control

COc1ccc(C(O)c2ccccn2)cc1 (stereo not drawn)
inactive: [1] 90 % of control | [2] 98 % of control | [3] 95 % of control

CSC(=N)c1cccc(OCc2ccccc2)c1
inactive: [4] 113 % of control | dose: 100.0 mg/kg/injection, schedule: Q04DX002 (ip), vehicle: Klucel (hydroxypropylcellulose) (HPC) 100 % of control | [5] 102 % of control | [6] 96 % of control | dose: 200.0 mg/kg/injection, schedule: Q04DX002 (ip), vehicle: Klucel (hydroxypropylcellulose) (HPC) 103 % of control | [7] 102 % of control | dose: 400.0 mg/kg/injection, schedule: Q04DX002 (ip), vehicle: Klucel (hydroxypropylcellulose) (HPC) 94 % of control | [8] 102 % of control

CNC(=O)C1C2CCC(C2)C1C(=O)NC (stereo not drawn)
inactive: dose: 75.0 mg/kg/injection, schedule: Q04DX003 (ip), vehicle: saline 97 % of control | [9] 96 % of control | dose: 150.0 mg/kg/injection, schedule: Q04DX003 (ip), vehicle: saline 95 % of control | [10] 96 % of control | dose: 300.0 mg/kg/injection, schedule: Q04DX003 (ip), vehicle: saline 97 % of control | [11] 96 % of control

C[N+](C)=Cc1c[nH]c2ccccc12
inactive: dose: 9.38 mg/kg/injection, schedule: Q01DX001 (ip), vehicle: steriod suspending solution 98 % of control | dose: 18.75 mg/kg/injection, schedule: Q01DX001 (ip), vehicle: steriod suspending solution 94 % of control | dose: 37.5 mg/kg/injection, schedule: Q01DX001 (ip), vehicle: steriod suspending solution 98 % of control

CC1CCCC(C[N+](C)(C)C)C1=O (stereo not drawn)
inactive: [9] 93 % of control | [10] 101 % of control

CCCCCCCCCCOC(=O)N1C(=O)NC(=O)C1c1ccccc1 (stereo not drawn)
inactive: [4] 104 % of control | [12] 103 % of control | [6] 104 % of control | [13] 97 % of control | [14] 96 % of control | [15] 93 % of control

CCOC(=O)C(NC(C)=O)C(N)=S (stereo not drawn)
inactive: dose: 100.0 mg/kg/injection, schedule: Q01DX001 (ip), vehicle: saline 99 % of control | [16] 108 % of control | [9] 102 % of control | dose: 200.0 mg/kg/injection, schedule: Q01DX001 (ip), vehicle: saline 93 % of control | [17] 97 % of control | [10] 96 % of control | dose: 400.0 mg/kg/injection, schedule: Q01DX001 (ip), vehicle: saline 94 % of control | [18] 105 % of control | [11] 106 % of control

N#[N+]c1c([O-])[nH]c(=O)[nH]c1=O
inactive: dose: 50.0 mg/kg/injection, schedule: Q01DX009 (ip), vehicle: Klucel (hydroxypropylcellulose) (HPC) 95 % of control | [4] 107 % of control | [6] 88 % of control

CCCC#CCCCN1CCC2(CC1)C(=O)NCN2c1ccccc1
inactive: dose: 20.0 mg/kg/injection, schedule: Q04DX003 (ip), vehicle: Klucel (hydroxypropylcellulose) (HPC) 103 % of control | dose: 40.0 mg/kg/injection, schedule: Q04DX003 (ip), vehicle: Klucel (hydroxypropylcellulose) (HPC) 103 % of control | dose: 80.0 mg/kg/injection, schedule: Q04DX003 (ip), vehicle: Klucel (hydroxypropylcellulose) (HPC) 91 % of control | [12] 93 % of control

OC(c1ccccc1)C(Nc1ccccc1)c1ccccc1 (stereo not drawn)
inactive: dose: 75.0 mg/kg/injection, schedule: Q01DX001 (ip), vehicle: saline 102 % of control | [1] 96 % of control | dose: 150.0 mg/kg/injection, schedule: Q01DX001 (ip), vehicle: saline 94 % of control | [2] 98 % of control | dose: 300.0 mg/kg/injection, schedule: Q01DX001 (ip), vehicle: saline 97 % of control | [3] 93 % of control

O=C(CCl)Nc1ccc(O)c2ccccc12
inactive: [19] 102 % of control | [20] 91 % of control

CC(=O)Nc1ccc(OC(=O)Nc2c(C)cccc2C)cc1
inactive: [12] 100 % of control | [13] 91 % of control | [15] 91 % of control

CNC(=O)Oc1coc(CCl)cc1=O
inactive: dose: 37.5 mg/kg/injection, schedule: Q01DX001 (ip), vehicle: other 106 % of control | [19] 101 % of control | [20] 104 % of control

C[Si](C)(C)Cc1ccc(F)cc1
inactive: dose: 25.6 mg/kg/injection, schedule: Q04DX002 (ip), vehicle: saline with Tween-80 90 % of control | dose: 64.0 mg/kg/injection, schedule: Q04DX002 (ip), vehicle: saline with Tween-80 93 % of control | [1] 93 % of control | dose: 160.0 mg/kg/injection, schedule: Q04DX002 (ip), vehicle: saline with Tween-80 97 % of control | [2] 97 % of control | dose: 400.0 mg/kg/injection, schedule: Q04DX002 (ip), vehicle: saline with Tween-80 97 % of control | [3] 93 % of control

CCOC(=O)C(Br)(C(=O)OCC)C(C)C
inactive: [16] 101 % of control | [17] 95 % of control | [18] 100 % of control

NCCOc1ccccn1
inactive: [5] 111 % of control | [7] 101 % of control | [8] 101 % of control

Nc1c(-c2ccccc2)[nH][nH]c1=O
inactive: dose: 100.0 mg/kg/injection, schedule: Q01DX001 (ip), vehicle: Klucel (hydroxypropylcellulose) (HPC) 91 % of control | [4] 92 % of control | [12] 100 % of control | dose: 200.0 mg/kg/injection, schedule: Q01DX001 (ip), vehicle: Klucel (hydroxypropylcellulose) (HPC) 99 % of control | [6] 92 % of control | [13] 102 % of control | dose: 400.0 mg/kg/injection, schedule: Q01DX001 (ip), vehicle: Klucel (hydroxypropylcellulose) (HPC) 94 % of control | [14] 93 % of control | [15] 104 % of control
